{"source": "patent US20230390240A1", "about": "“METHODS OF TREATMENT” (Board of Supervisors of Louisiana State University and …, priority 2020, published 2023)", "key": {"RPE65 isomerase": {"target": "T1, RPE65 isomerase (Homo sapiens, UniProt Q16518)", "T1 sequence (Q16518 1-533)": "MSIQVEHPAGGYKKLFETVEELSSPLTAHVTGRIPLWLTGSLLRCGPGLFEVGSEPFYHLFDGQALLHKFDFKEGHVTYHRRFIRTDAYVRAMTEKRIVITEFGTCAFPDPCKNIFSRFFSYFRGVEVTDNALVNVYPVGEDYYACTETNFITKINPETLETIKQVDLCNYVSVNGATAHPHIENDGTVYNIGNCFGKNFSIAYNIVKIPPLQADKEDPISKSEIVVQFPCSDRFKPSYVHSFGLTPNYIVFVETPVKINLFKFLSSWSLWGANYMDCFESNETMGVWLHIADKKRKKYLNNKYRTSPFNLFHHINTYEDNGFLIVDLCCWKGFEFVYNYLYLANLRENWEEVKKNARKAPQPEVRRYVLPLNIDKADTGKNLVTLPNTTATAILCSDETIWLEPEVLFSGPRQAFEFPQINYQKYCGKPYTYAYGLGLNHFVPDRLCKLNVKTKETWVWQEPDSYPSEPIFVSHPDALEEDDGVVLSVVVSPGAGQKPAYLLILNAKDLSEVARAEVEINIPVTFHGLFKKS", "conditions": "in vitro; cited from earlier work"}, "[1]": {"system": "S-opsin in retinal explants", "assay": "Protease inhibitor assay: immunoblot of S-opsin in retinal explants", "type": "cell-based, mouse", "conditions": "5 hours", "text": "OS, outer segments; ONL, Outer nuclear layer; OPL, outer plexiform layer. Scale bar, 20-μm. (B) Percentage of Sopsin mislocalization estimated by dividing S-opsin immunofluorescence in the OPL by the sum of immunofluorescence in the OPL and OS. Note the decrease in S-opsin mislocalization in KI;Fatp4^−/− mice. (C,D) Immunoblot analysis of S-opsin in retinal explants treated with the indicated concentrations of MG132 (C) or pepstatin A (D). DMSO was used in the MG132 and pepstatin A null controls. Histograms show relative immunoblot intensities of S-opsin in MG132-treated and pepstatin A-treated retinas versus DMSO-treated controls. (E) Representative immunoblot analysis of M-opsin in Triton X-100 (Tx)-soluble and -insoluble retinal fractions separated by ultracentrifugation (right panel). […] (F) Percentages of Tx-soluble and -insoluble Mopsin in WT, KI, and KI;Fatp4^−/− mice are estimated from the immunoblot intensities in (E).\nImmunoblot analysis Protein samples were separated by SDS-PAGE and transferred to an Immobilon-P membrane. The membrane was incubated in blocking buffer, primary antibody, and horseradish peroxidase-conjugated anti-rabbit or mouse IgG secondary antibody. Antibodies against RPE65 (63), LRAT (64, 65), FATP4 (66), β-actin, rhodopsin, M-opsin (MilliporeSigma Co.), S-opsin (Santa Cruz Biotechnology) were used as the primary antibodies. Immunoblots were visualized with the ECL Prime Western blotting detection reagent and ImageQuant LAS 4000 (48). Signal intensity of each band was quantified using ImageQuant TL software.\nProtease inhibitor assay Eyes were enucleated from euthanized 4-week-old mice, and the corneas and lenses were removed. The neural retinas dissected from the eyecups were maintained in the DMEM-F12 medium (Thermo Fisher Scientific Inc.) supplemented with 10% fetal bovine serum and antibiotics in a 5% CO2 incubator at 37° C. After incubating for 5 hours in the presence of a series of increasing concentrations of MG132 (0˜25 μM) or pepstatin A (0˜30 μM), the retinas were subjected to immunoblot analysis."}, "[2]": {"target": "T2, mutated RPE65 (R91W KI mice) (Mus musculus, UniProt Q91ZQ5, R91W)", "T2 construct": "host or cells: R91W knock-in (KI) mice", "T2 sequence (Q91ZQ5 1-533 R91W)": "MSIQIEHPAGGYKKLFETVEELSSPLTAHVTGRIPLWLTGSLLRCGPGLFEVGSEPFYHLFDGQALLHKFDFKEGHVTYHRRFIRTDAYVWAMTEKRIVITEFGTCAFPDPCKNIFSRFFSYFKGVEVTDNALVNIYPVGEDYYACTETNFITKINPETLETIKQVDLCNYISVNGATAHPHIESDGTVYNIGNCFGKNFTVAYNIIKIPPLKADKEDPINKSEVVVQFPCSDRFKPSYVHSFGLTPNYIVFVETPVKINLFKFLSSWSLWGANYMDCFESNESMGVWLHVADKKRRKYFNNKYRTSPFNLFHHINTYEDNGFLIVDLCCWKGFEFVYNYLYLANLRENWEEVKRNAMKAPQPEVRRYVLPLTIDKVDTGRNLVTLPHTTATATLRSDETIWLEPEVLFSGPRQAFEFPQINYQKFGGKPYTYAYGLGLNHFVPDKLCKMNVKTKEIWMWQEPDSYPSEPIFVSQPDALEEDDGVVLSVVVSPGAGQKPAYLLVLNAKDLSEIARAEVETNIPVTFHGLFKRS", "conditions": "cited from earlier work"}, "[3]": {"system": "FATP4 in intestinal cells", "conditions": "animal studies; cited from earlier work"}, "[4]": {"system": "fatty acid transport protein 4 (FATP4)", "assay": "Immunoblot analysis of FATP4 in the RPE of mice treated daily with drug", "type": "in vivo, mouse", "conditions": "one-month-old mice treated daily, oral; Ezetimibe 10 mg/kg, Simvastatin 30 mg/kg; vs DMSO", "excerpt": "Actin was detected as the loading control."}}, "note": "Peptide text beside a SMILES is read from it. * marks the point of attachment. Cbz = O=C(OCc1ccccc1)*", "data": [{"compound": "CCCCCCCCCCCCCCCCCCCCCCCC(=O)SCCNC(=O)CCNC(=O)[C@H](O)C(C)(C)COP(=O)(O)OP(=O)(O)OC[C@H]1O[C@@H](n2cnc3c(N)ncnc32)[C@H](O)[C@@H]1OP(=O)(O)O", "note": "[lignoceroyl (C24:0)-CoA]", "values": [{"measurement": "synthesis of 11-cis-retinol (11cROL)", "setting": "RPE65 isomerase", "result": "inhibited the synthesis"}]}, {"compound": "pepstatin A", "values": [{"measurement": "relative amount of S-opsin, increase vs DMSO-treated retinas", "setting": "[1]; KI retinas, pepstatin A (0~30 μM)", "result": "~55", "unit": "%"}, {"measurement": "relative amount of S-opsin, increase vs DMSO-treated retinas", "setting": "[1]; KI;Fatp4−/− retinas, pepstatin A (0~30 μM)", "result": "~43", "unit": "%"}]}, {"compound": "O=C(O)CCCc1ccccc1", "note": "[4-phenylbutyrate]", "values": [{"measurement": "elevation of 11cRAL", "setting": "[2]; KI mice", "result": 96, "unit": "%"}, {"measurement": "function of mutated RPE65; preservation of photoreceptors and vision", "setting": "[2]; systemic administration, mouse model of LCA", "result": "could partially rescue the function of mutated RPE65"}]}, {"compound": "O=C1[C@H](CC[C@H](O)c2ccc(F)cc2)[C@@H](c2ccc(O)cc2)N1c1ccc(F)cc1", "note": "[Ezetimibe]", "values": [{"measurement": "expression of FATP4 in intestinal cells", "setting": "[3]", "result": "markedly reduced expression of FATP4"}, {"measurement": "expression levels of FATP4 in the retinal pigment epithelium (RPE)", "setting": "[4]", "result": "reduced expression levels"}]}, {"compound": "CCCCCCCCCCCCCCCC(=O)SCCNC(=O)CCNC(=O)[C@H](O)C(C)(C)COP(=O)(O)OP(=O)(O)OC[C@H]1O[C@@H](n2cnc3c(N)ncnc32)[C@H](O)[C@@H]1OP(=O)(O)O", "note": "[palmitoyl (C16:0)-CoA]", "values": [{"measurement": "synthesis of 11-cis-retinol (11cROL)", "setting": "RPE65 isomerase", "result": "promoted the synthesis"}]}, {"compound": "CC(C)C[C@@H](C=O)NC(=O)[C@H](CC(C)C)NC(=O)[C@H](CC(C)C)NC(=O)OCc1ccccc1", "note": "[MG132] (Cbz-Leu-Leu-Leu-aldehyde)", "values": [{"measurement": "relative amount of S-opsin, increase vs DMSO-treated retinas", "setting": "[1]; KI retinas, MG132 (0~25 μM)", "result": 3, "unit": "fold"}, {"measurement": "relative amount of S-opsin, increase vs DMSO-treated retinas", "setting": "[1]; KI;Fatp4−/− retinas, MG132 (0~25 μM)", "result": 1.6, "unit": "fold"}]}]}
